For one assay, the system named is NCI-H1975. In words: Cell proliferation assay (CellTiter-Glo), NCI-H1975. The class given is cell-based. Particulars: Homo sapiens, 72 h exposure, mean ± SD of two experiments. As to the method:
(§1) Given the desirable enzyme activity profile, these compounds were further assayed for their antiproliferative activities against five independent human tumour cell line collections harbouring PIK3CA mutation, including human ovarian cancer cell line SKOV-3, human breast cancer T47D and MCF-7, human lung cancer H1975 and H460. […] In general, the cellular activity of tested derivatives corrected with their effects on kinase activity.
(§2) All target compounds were evaluated for antiproliferative potency against SKOV-3, T47D,NCI-H1975, NCI-H460,and MCF-7 tumour cell lines using a CellTiter-Glo® Luminescent Cell Viability Assay. The human tumour cell lines used were obtained from the ATCC or Shanghai ZhongQiaoXinZhou Biotech. All the mediums and FBS were Gibco. T47D, H1975 and NCI-H460 tumour cells were cultured in RPMI1640 medium supplemented with 10% FBS. SKOV-3 was cultured in McCoy’s 5 A medium supplemented with 10%FBS. The day before treatment with compounds, cells were seeded at a density of 2000 or 5000 in each well of a 96-well plate. The tumour cells were then treated with 3-fold serial diluted compound or DMSO control in the incubator at 37 °C and 5% CO2 for 3 days, prior to the addition of CellTiter-Glo reagents (Promega) and reading of luminescence using a PerkinElmer Envision plate reader. Data were analysed using GraphPad Prism 7.0.
A general note: Cellular ATP, detected with luciferase, serves as a proxy for viable cell number.

In another assay the test system is SKOV-3. Put plainly: Cell proliferation assay (CellTiter-Glo), SKOV-3. Format: cell-based. Particulars: Homo sapiens, SK-OV-3; 72 h exposure; mean ± SD of two experiments. Here is the method: as §1, §2
For a further assay, the system named is T47D. Put plainly: Cell proliferation assay (CellTiter-Glo), T47D. The class given is cell-based. Particulars: Homo sapiens, 72 h exposure, mean ± SD of two experiments. Here is the method: as §1, §2
In a further assay the test system is NCI-H460. In words: Cell proliferation assay (CellTiter-Glo), NCI-H460. Format: cell-based. Particulars: Homo sapiens, 72 h exposure, mean ± SD of two experiments. Here is the method:
as §1, §2

A further assay relates to MCF-7. Put plainly: Cell proliferation assay (CellTiter-Glo), MCF-7. Format: cell-based. Particulars: Homo sapiens, MCF7; 72 h exposure; mean ± SD of two experiments. As to the method: as §1, §2
The target in another assay is T1, PI3Kα (Homo sapiens, UniProt P42336).
T1 construct: purchased Invitrogen
In words: In vitro PI3Kα enzymatic assay (ADP-Glo / Kinase-Glo, ATP 25 μM). Format: biochemical. Particulars: ATP 25 μM; for IC50: mean ± SD of two experiments; for inhibition at 10 µM: read-out: % Inhibition at 10 μM. Here is the method:
To screen the inhibitory activity of the target compounds against PI3Kα, the Kinase-Glo™ assay with ATP at 25 μM was utilised with PIK-75 as positive control. We chose to explore the SARs at three positions on the Imidazo[1,2-a]pyridine core. To start with, a set of 8-position modifications were prepared while keeping the morpholinyl amide substituent on 2-position fixed, since it allowed quick structure − activity profiling via coupling reactions of bromide with aryl borates or boronic acids. […] We then turned our attention back to the phenyl substituents.
Briefly, the compound, PI3K enzyme (PI3Kα from Invitrogen), the PIP2 (Life Technologies) substrate, and ATP (25 μM, Sigma) were diluted in kinase buffer to the indicated concentrations. The assay plate was covered and incubated at room temperature for 1 h. Then, the Kinase-Glo reagent (Promega) was added to the PI3Kα plate to stop the reaction, mixed briefly with centrifuge, shaken slowly on the shaker and then equilibrate for 120 min. Finally, add Kinase detection reagent to each well, shake 1 min, equilibrate for 30 min before reading on a plate reader for luminescence. The data were collected on Envision and presented in Excel. IC50 values were calculated from the inhibition curves.
On the technique in general: In ADP-Glo the light output rises with the ADP produced.

Setting [1] is: PI3Kα, compound 10 μM, mean ± SD of three determinations.

T1 sequence (P42336 whole entry): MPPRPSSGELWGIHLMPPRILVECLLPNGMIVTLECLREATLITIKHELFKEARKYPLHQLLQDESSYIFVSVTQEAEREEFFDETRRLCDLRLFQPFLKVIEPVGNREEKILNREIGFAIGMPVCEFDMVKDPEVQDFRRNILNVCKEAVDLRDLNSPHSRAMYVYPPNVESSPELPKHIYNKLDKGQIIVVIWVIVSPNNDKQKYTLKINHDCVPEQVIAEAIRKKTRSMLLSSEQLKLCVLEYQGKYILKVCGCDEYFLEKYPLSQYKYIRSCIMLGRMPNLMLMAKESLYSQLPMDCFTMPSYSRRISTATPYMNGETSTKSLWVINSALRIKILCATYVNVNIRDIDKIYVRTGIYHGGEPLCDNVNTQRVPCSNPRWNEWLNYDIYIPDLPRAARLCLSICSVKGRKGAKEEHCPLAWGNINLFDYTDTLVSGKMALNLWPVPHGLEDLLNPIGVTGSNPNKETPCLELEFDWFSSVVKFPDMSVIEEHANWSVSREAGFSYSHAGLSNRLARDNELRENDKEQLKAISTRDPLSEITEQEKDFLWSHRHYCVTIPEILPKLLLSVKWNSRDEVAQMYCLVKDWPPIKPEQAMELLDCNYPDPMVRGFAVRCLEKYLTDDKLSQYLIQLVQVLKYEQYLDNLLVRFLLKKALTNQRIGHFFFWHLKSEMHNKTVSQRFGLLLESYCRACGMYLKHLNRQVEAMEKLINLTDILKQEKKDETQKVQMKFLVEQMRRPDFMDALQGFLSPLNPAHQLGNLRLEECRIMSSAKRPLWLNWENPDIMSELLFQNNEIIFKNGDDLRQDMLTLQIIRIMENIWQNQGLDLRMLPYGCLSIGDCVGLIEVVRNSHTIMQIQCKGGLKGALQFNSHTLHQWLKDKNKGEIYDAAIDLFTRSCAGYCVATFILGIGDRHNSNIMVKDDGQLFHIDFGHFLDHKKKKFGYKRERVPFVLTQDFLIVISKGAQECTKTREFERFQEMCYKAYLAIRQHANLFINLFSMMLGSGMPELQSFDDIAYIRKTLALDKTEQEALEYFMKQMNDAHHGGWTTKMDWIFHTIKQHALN
T1 sequence (P27986 whole entry partner): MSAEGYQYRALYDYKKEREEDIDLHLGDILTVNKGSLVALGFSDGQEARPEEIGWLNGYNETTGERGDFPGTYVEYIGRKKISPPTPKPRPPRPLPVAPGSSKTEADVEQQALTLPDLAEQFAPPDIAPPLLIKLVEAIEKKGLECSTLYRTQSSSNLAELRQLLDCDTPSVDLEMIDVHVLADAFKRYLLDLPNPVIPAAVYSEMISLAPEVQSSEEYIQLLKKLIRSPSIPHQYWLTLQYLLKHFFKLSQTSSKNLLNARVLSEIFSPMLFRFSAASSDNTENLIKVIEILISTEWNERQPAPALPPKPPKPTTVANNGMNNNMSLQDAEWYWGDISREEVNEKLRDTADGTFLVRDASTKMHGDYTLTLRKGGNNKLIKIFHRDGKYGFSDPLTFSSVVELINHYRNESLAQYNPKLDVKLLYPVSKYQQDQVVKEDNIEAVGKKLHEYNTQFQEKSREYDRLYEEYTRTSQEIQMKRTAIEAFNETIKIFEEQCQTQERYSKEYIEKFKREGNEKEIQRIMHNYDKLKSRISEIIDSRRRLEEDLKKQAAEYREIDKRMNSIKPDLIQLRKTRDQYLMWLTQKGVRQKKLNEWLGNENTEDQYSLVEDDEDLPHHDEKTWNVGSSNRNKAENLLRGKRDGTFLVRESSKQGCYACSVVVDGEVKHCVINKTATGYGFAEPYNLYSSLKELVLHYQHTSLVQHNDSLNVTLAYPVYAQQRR

As for `Cc1nc(NC(=O)N2CCC[C@H]2C(N)=O)sc1-c1ccnc(C(C)(C)C(F)(F)F)c1` [Alpelisib, reference compound], the IC50 (in general, the midpoint of a concentration-inhibition curve) with NCI-H1975 turned out to be 2.7 ± 0.2 µM; in the assay on SKOV-3, 9.7 ± 0.7 µM; in the assay on T47D, 0.46 ± 0.05 µM; in the assay with NCI-H460 it was 8.9 ± 0.7 µM; with MCF-7, 2.2 ± 0.3 µM.

Consider `COc1ncc(-c2cc(C)cn3cc(C(=O)N4CCCC4)nc23)cc1NS(=O)(=O)c1ccc(F)cc1F` [Compound 36, 2,4-Difluoro-N-(2-methoxy-5–(6-methyl-2-(pyrrolidine-1-carbonyl)Imidazo[1,2-a]pyridin-8-yl)pyridin-3-yl)benzenesulfonamide], for which the IC50 in the assay on NCI-H1975 was greater than 50 µM; with SKOV-3 it was 35.3 ± 4.2 µM; in the assay on T47D, 15.9 ± 1.5 µM; against PI3Kα it was 1.12 ± 0.15 µM; with NCI-H460, 30.2 ± 3.1 µM; with MCF-7, 8.1 ± 0.8 µM. The inhibition (usually the drop in the measured response relative to a control, in per cent) at 10 µM on PI3Kα (setting [1]) was greater than 85%.

As for `COc1ncc(-c2cc(C)cn3cc(C(=O)NCCN4CCOCC4)nc23)cc1NS(=O)(=O)c1ccc(F)cc1` [Compound 40, 8–(5-((4-Fluorophenyl)sulfonamido)-6-methoxypyridin-3-yl)-6-methyl-N-(2-morpholinoethyl)Imidazo[1,2-a]pyridine-2-carboxamide], the IC50 in the assay on NCI-H1975 stood at 41.4 ± 3.4 µM; in the assay on SKOV-3, 25.5 ± 3.9 µM; in the assay on T47D it was 12.5 ± 1.8 µM; on PI3Kα, 0.5 ± 0.11 µM; in the assay on NCI-H460, 21.8 ± 1.9 µM; with MCF-7 it was 7.6 ± 0.5 µM. In addition, the inhibition at 10 µM on PI3Kα (setting [1]) was greater than 85%.

`COc1ncc(-c2cc(C)cn3cc(C(=O)N4CCC(C)CC4)nc23)cc1NS(=O)(=O)c1ccc(F)cc1` [Compound 43, 4-Fluoro-N-(2-methoxy-5–(6-methyl-2–(4-methylpiperidine-1-carbonyl)Imidazo[1,2-a]pyridin-8-yl)pyridin-3-yl)benzenesulfonamide]: the inhibition at 10 µM on PI3Kα (setting [1]) worked out at 62.8 ± 4.6%.

As to `Cc1cc(-c2ccc(F)cc2)c2nc(C(=O)N3CCOCC3)cn2c1` [Compound 15, (8–(4-Fluorophenyl)-6-methylImidazo[1,2-a]pyridine-2-yl)(morpholino)methanone], on PI3Kα (setting [1]), the inhibition at 10 µM was 31.9 ± 2.9%.

For the molecule `Cc1cc(-c2ccc(NC(=O)c3cccc(F)c3)cc2)c2nc(C(=O)N3CCCC3)cn2c1` [Compound 26, 3-Fluoro-N-(4–(6-methyl-2-(pyrrolidine-1-carbonyl)Imidazo[1,2-a]pyridin-8-yl)phenyl)benzamide], the inhibition at 10 µM at PI3Kα (setting [1]) came to 57.9 ± 4.6%.

Consider “N,N-Diethyl-3–(6-methyl-2–(4-methylpiperidine-1-carbonyl)Imidazo[1,2-a]pyridin-8-yl)benzenesulfonamide [Compound 32]”, for which the % Inhibition (as a rule, the drop in the measured response relative to a control, in per cent) at 10 μM on PI3Kα (setting [1]) is 50.6 ± 0.9%.
